In EP1803452A1, “ESTER DERIVATIVE AND PHARMACEUTICAL USE THEREOF” (Japan Tobacco, Inc., priority 2004, dated 2006):

How the values were obtained:
[1] = target: T1, Microsomal triglyceride transfer protein (MTP) from human small intestine microsome (Homo sapiens, UniProt P55157); assay: Inhibition test of interliposomal triglyceride (TG) transfer activity by MTP; type: biochemical; settings: purified MTP from human small intestine microsome, 14C-triolein donor/acceptor liposomes, 37 °C for 1.5 hours
T1 construct: Human small intestine microsome was dialyzed against 10 mM phosphate buffer; tissue Tissue Transforming Technologies, Inc; host or cells: Human small intestine microsomes, dialysed, centrifuged, and the supernatant purified on DEAE Sepharose (FPLC)
T1 sequence (P55157 19-894): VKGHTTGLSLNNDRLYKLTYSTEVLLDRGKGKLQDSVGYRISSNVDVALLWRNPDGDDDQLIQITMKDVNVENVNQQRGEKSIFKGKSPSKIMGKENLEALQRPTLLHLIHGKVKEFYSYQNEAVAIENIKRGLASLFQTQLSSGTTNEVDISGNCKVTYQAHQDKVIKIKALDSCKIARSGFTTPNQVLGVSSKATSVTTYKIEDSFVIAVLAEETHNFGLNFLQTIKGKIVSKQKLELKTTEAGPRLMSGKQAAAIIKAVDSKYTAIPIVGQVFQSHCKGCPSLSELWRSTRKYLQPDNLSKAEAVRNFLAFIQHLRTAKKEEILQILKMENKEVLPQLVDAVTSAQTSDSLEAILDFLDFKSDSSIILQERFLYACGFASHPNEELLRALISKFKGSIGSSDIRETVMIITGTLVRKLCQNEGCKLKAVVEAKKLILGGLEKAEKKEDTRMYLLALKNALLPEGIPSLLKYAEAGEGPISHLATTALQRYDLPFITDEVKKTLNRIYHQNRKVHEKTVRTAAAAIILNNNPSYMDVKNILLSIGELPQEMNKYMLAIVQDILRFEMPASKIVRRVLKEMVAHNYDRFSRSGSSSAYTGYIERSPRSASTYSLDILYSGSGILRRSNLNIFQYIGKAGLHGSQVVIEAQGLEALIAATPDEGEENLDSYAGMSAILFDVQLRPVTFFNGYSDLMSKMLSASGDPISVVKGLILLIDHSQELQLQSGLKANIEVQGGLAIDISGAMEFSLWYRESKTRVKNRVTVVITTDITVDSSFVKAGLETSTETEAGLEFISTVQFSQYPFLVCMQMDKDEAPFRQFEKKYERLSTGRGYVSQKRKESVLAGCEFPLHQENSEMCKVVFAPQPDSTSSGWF
T1 sequence (P07237 18-508 partner): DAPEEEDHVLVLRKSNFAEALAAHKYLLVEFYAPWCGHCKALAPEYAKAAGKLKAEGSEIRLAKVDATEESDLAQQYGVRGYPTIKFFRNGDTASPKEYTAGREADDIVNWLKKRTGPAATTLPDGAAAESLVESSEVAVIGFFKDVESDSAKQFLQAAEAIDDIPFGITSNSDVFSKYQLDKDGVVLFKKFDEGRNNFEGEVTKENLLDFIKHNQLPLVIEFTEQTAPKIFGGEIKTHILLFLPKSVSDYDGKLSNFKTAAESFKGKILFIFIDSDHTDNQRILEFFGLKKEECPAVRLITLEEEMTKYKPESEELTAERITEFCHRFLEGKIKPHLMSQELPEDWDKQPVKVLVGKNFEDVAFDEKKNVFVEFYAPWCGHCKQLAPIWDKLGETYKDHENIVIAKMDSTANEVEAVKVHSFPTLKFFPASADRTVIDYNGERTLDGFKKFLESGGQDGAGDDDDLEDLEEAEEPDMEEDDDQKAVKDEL
From the text: Firstly, in order to prepare the donor, there were volatilized under a stream of nitrogen gas a phosphatidylcholine solution containing phosphatidylcholine labeled with ^3H, a cardiolipin solution, and a triolein solution containing triolein labeled with ^14C (each solution had been already dissolved in an appropriate organic solvent), or in order to prepare the acceptor, there were volatilized under nitrogen flow a phosphatidylcholine solution containing phosphatidylcholine labeled with ^3H and a cardiolipin solution (each solution had been already dissolved in an appropriate organic solvent). An appropriate amount of a reaction buffer (15 mM Tris-HCl buffer containing 1 mM EDTA.Na2, 40 mM NaCl, and 0.5% (w/v) bovine serum albumin, pH 7.4) was added thereto to be emulsified. […] Each of the resulting supernatant was used for donor or acceptor.
Each radioactivity in the acceptor and the donor was measured by liquid scintillation counter, and a mixed solution of the acceptor and the donor was prepared with a reaction buffer so as to be a donor-derived radioactivity of 16,000 dpm/400 µL and a acceptor-derived radioactivity of 4,000 dpm/400 µL. 400 µL of the mixed solution of the donor and the acceptor, 45 µL of the reaction buffer, 50 µL of MTP (20 µg/mL), and 5 µL of a sample dissolved in DMSO (dimethyl sulfoxide) or 5 µL of DMSO was mixed (total amount: 500 µL). The mixture was incubated at 37 °C for 1.5 hours. […] The radioactivity in the acceptor was measured by liquid scintillation counter. The value obtained by subtracting the radioactivity in a blank group from the radioactivity in the acceptor of a DMSO group was determined as MTP-mediated TG transfer activity, and it was compared with the value obtained by subtracting the radioactivity in the blank group from the radioactivity in a sample group. […] Inhibition rate (%) was calculated from values obtained according to the following equation. Inhibition rate(%) = (1 minus ((radioactivity of sample group minus radioactivity of blank group)/(radioactivity of DMSO group minus radioactivity of blank group))) × 100.

[2] = Metabolic stability test in liver S9; type: in vitro ADME; settings: pH 7.4, human liver S9 2 mg protein/mL, LC/MS; for remaining at 10 min: unchanged form after 10 minutes at 37°C, read-out: Remaining rate in human liver S9 (%/10min); for remaining at 1 h: unchanged form after 60 minutes at 37°C, read-out: Remaining rate in human liver S9 (%/60min)
How it was run: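 Compound from DMSO solution was incubated at 37°C with human liver S9 (final 2 mg protein/mL) in 100 mM potassium phosphate pH 7.4 with an NADPH-regenerating system for 0, 10 and 60 minutes. Reactions were stopped with acetonitrile/0.1% formic acid. Unchanged compound was measured by LC/MS as remaining rate (%) relative to zero time.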

[3] = Metabolic stability test in plasma; type: in vitro ADME, human; settings: LC/MS; for remaining at 10 min: unchanged form after 10 minutes at 37°C in human plasma, read-out: Remaining rate in human plasma (%/10min); for remaining at 1 h: unchanged form after 60 minutes at 37°C in human plasma, read-out: Remaining rate in human plasma (%/60min)
How it was run: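 Remaining rate (%) versus zero time was derived from LC/MS measurement of parent compound after centrifugation. Plasma from human, mouse and hamster received DMSO-dissolved compound and was held at 37°C for 0, 10 or 60 minutes before acetonitrile containing formic acid (final 0.1%) stopped the reaction.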

[4] = Stability test in buffer (pH 7.4); type: physicochemical; settings: phosphate buffer/acetonitrile 7:3, 100 mM potassium phosphate buffer (pH 7.4) and acetonitrile 7:3 (v/v), LC/MS; for remaining at 10 min: 10 minutes at 37°C, read-out: Buf. remaining rate (%/10min); for remaining at 1 h: 60 minutes at 37°C, read-out: Buf. remaining rate (%/60min)
How it was run: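 Parent compound measured by LC/MS after 0, 10 or 60 min at 37°C in a 7:3 (v/v) mix of 100 mM potassium phosphate buffer and acetonitrile, with the reaction stopped by acetonitrile plus formic acid (final 0.1%). Percentage remaining is expressed relative to the zero-time amount.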

SMILES | Human intestine MTP (IC50(nM)) [1] | remaining at 10 min [2] | remaining at 1 h [2] | remaining at 10 min [3] | remaining at 1 h [3] | remaining at 10 min [4] | remaining at 1 h [4]
COC(=O)c1ccc(OC(=O)CCCc2ccc(NC(=O)c3ccc(C)cc3-c3ccc(C(F)(F)F)cc3)c(C(=O)N(C)C)c2)cc1 [Compound 1-9, 4-(4-{3-dimethylcarbamoyl-4-[(5-methyl-4'-trifluoromethylbiphenyl-2-carbonyl)amino]phenyl}butyryloxy) benzoic acid methyl ester] | ++ + | 0% | 0% | 34% | 0% | 94% | 97%
CCOC(=O)c1cc(OC)c(OC(=O)CCCc2ccc(NC(=O)c3ccc(C)nc3-c3ccc(C(F)(F)F)cc3)c(C(=O)N(C)C)c2)c(C(=O)OC)c1 [Compound 1-54, 4-[4-(3-dimethylcarbamoyl-4-{[6-methyl-2-(4-trifluoromethylphenyl)pyridine-3-carbonyl]amino}phenyl)butyryloxy]-5-methoxyisophthalic acid 1-ethyl ester 3-methyl ester] | + ++ | 10% | 2% | 0% | 0% | 97% | 105%
COC(=O)c1ccc(OC(=O)CCCc2ccc(NC(=O)c3ccc(C)nc3-c3ccc(C(F)(F)F)cc3)c(C(=O)N(C)C)c2)c(C(=O)OC)c1 [Compound 1-70, 4-[4-(3-dimethylcarbamoyl-4-{[6-methyl-2-(4-trifluoromethylphenyl)pyridine-3-carbonyl]amino}phenyl)butyryloxy]isophthalic acid dimethyl ester] | + ++ | 0% | 0% | 0% | 0% | 101% | 104%
COc1cc(C(=O)OCCNC(C)=O)cc(Cl)c1OC(=O)CCCc1ccc(NC(=O)c2ccc(C)nc2-c2ccc(C(F)(F)F)cc2)c(C(=O)N(C)C)c1 [Compound 1-114, 3-chloro-4-[4-(3-dimethylcarbamoyl-4-{[6-methyl-2-(4-trifluoromethylphenyl)pyridine-3-carbonyl]amino}phenyl)butyryloxy]-5-methoxybenzoic acid 2-acetylaminoethyl ester] | – | 14% | 3% | 2% | 0% | 104% | 108%
CC(C)n1nnc(-c2ccc(OC(=O)CCCc3ccc(NC(=O)c4ccccc4-c4ccc(C(F)(F)F)cc4)c(C(=O)N(C)C)c3)cc2)n1 [Compound 1-115, 4-(3-dimethylcarbamoyl-4-{(4'-trifluoromethylbiphenyl-2-carbonyl)amino}phenyl)butyric acid 4-(2-isopropyl-2H-tetrazol-5-yl)phenyl ester] | – | 0% | 0% | 85% | 40% | 98% | 98%
COC(=O)c1ccc(OC(=O)CN(C)Cc2ccc(NC(=O)c3ccccc3-c3ccc(C(F)(F)F)cc3)c(C(=O)N(C)C)c2)cc1 [Compound 2-1, 4-[2-({3-dimethylcarbamoyl-4-[(4'-trifluoromethylbiphenyl-2-carbonyl)amino]benzyl}methylamino)acetoxy]benzoic acid methyl ester] | – | 0% | 0% | 47% | 0% | 95% | 95%
COC(=O)c1ccc(OC(=O)C2CCN(c3ccc(NC(=O)c4ccccc4-c4ccc(C(F)(F)F)cc4)c(C(=O)N(C)C)c3)CC2)cc1 [Compound 3-1, 1-(3-dimethylcarbamoyl-4-[(4'-trifluoromethylbiphenyl-2-carbonyl)amino]phenyl}piperidine-4-carboxylic acid 4-methoxycarbonylphenyl ester] | – | 2% | 0% | 63% | 6% | 98% | 102%
COC(=O)c1ccc(OC(=O)C2CCN(c3ccc(NC(=O)c4ccccc4-c4ccc(C(F)(F)F)cc4)c(C(=O)N(C)C)c3)CC2)c(F)c1 [Compound 3-2, 1-{3-dimethylcarbamoyl-4-[(4'-trifluoromethylbiphenyl-2-carbonyl)amino]phenyl}piperidine-4-carboxylic acid 2-fluoro-4-methoxycarbonylphenyl ester] | – | 2% | 0% | 24% | 0% | 94% | 97%

The remaining lines, values ahead:

Human intestine MTP (IC50(nM)) [1] | remaining at 10 min [2] | remaining at 1 h [2] | remaining at 10 min [3] | remaining at 1 h [3] | remaining at 10 min [4] | remaining at 1 h [4] | SMILES
– | 0% | 0% | 25% | 0% | 99% | 101% | COC(=O)c1ccc(-c2nc(C)ccc2C(=O)Nc2ccc(CCCC(=O)Oc3c(C)cc(C(=O)OC)cc3Cl)cc2C(=O)N(C)C)cc1 [Compound 4-1, 3-chloro-4-[4-(3-dimethylcarbamoyl-4-{[2-(4-methoxycarbonylphenyl)-6-methylpyridine-3-carbonyl]amino}phenyl)butyryloxy]-5-methylbenzoic acid methyl ester]
– | 2% | 0% | 34% | 0% | 98% | 97% | COC(=O)c1ccc(-c2nc(C)ccc2C(=O)Nc2ccc(CCCC(=O)Oc3c(C)cc(C(=O)OC)cc3C(=O)OC)cc2C(=O)N(C)C)cc1 [Compound 4-2, 4-[4-(3-dimethylcarbamoyl-4-{[2-(4-methoxycarbonylphenyl)-6-methylpyridine-3-carbonyl]amino}phenyl)butyryloxy]-5-methylisophthalic acid dimethyl ester]
– | 1% | 0% | 0% | 0% | 101% | 102% | COC(=O)c1ccc(OC(=O)CCCc2ccc(NC(=O)c3ccccc3-c3ccc(C(=O)OC)cc3)c(C(=O)N(C)C)c2)cc1 [Compound 4-3, 2'-{2-dimethylcarbamoyl-4-[3-(4-methoxycarbonylphenoxycarbonyl)propyl]phenylcarbamoyl}biphenyl-4-carboxylic acid methyl ester]
– | 4% | 0% | 0% | 0% | 99% | 97% | COC(=O)c1ccc(-c2nc(C)ccc2C(=O)Nc2ccc(CCCC(=O)Oc3c(Cl)cc(C(=O)OC)cc3OC)cc2C(=O)N(C)C)cc1 [Compound 4-4, 3-chloro-4-[4-(3-dimethylcarbamoyl-4-{[2-(4-methoxycarbonylphenyl)-6-methylpyridine-3-carbonyl]amino}phenyl)butyryloxy]-5-methoxybenzoic acid methyl ester]
